Measurements: US20100035865A1, “Sulfonamides and Pharmaceutical Compositions Thereof” (PFIZER INC, priority 2007, published 2010)
Several values for one entry are separate records, joined by “and”; a condition that tells them apart may be missing. Equal entries are not always repeated. Where two headings read alike, the source gives them in different places.

Columns and labels:
AMPA receptors [1] = test: AMPA ES Cell FLIPR Screen, G7330B (EC50 and % effect); assay type: cell-based, murine; settings: for EC50: ES cell-derived neurons, 32 uM AMPA challenge
Method: (§1) The murine ES cell line used was E14-Sx1-16C, which has a targeted mutation in the Sox1 gene, a neuroectodermal marker, that offers G418 resistance when the Sox1 gene is expressed (Stem Cell Sciences). ES cells were maintained undifferentiated as previously described (Roach). […] ES cells were plated on gelatin-coated dishes (BD Biosciences), the media was changed daily and the cells were dissociated with 0.05% Trypsin EDTA (Invitrogen) every other day.
(§2) Embryoid Body Formation: Prior to embryoid body (EB) formation the ES cells were weaned from FBS onto Knockout Serum Replacement (KSR) (Invitrogen). To form EBs, ES cells were dissociated into a single cell suspension then 3×10^6 cells were plated in bacteriology dishes (Nunc 4014) and grown as a suspension culture in NeuroEB-I medium that consisted of Knockout™ D-MEM (Invitrogen), supplemented with 10% KSR (Invitrogen), 0.2 mM L-Glutamine (Invitrogen), 0.1 mM MEM non-essential amino acids (Invitrogen), 30 μg/ml Gentamicin (Invitrogen), 1000 u/ml ESGRO (Chemicon), 0.1 mM 2-Mercaptoethanl (Sigma) and 150 ng/ml Transferrin (Invitrogen). The plates were put on a Stovall Belly Button shaker in an atmospheric oxygen incubator. The media was changed on day 2 of EB formation with NeuroEB-I and on day 4 with NeuroEB-II (NeuroEB-I plus 1 μg/ml mNoggin [R&D Systems]).
(§3) Neuronal Precursor Selection and Expansion: On day 5 of EB formation, EBs were dissociated with 0.05% Trypsin EDTA, and 4×10^6 cells/100 mm dish were plated on Laminin coated tissue culture dishes in NeuroII-G418 medium that consisted of a base medium of a 1:1 mixture of D-MEM/F12 supplemented with N2 supplements and NeuroBasal Medium supplemented with B27 supplement and 0.1 mM L-Glutamine (all from Invitrogen). The base medium was then supplemented with 10 ng/ml bFGF (Invitrogen), 1 μg/ml mNoggin, 500 ng/ml SHH-N, 100 ng/ml FGF-8b (R&D Systems), 1 μg/ml Laminin and 200 μg/ml G418 (Invitrogen) for selection of neuronal precursors expressing Sox-1. The plates were put in an incubator that contained 2% Oxygen and were maintained in these conditions. During the 6-day selection period, the NeuroII media was changed daily. On day 6, the surviving neuronal precursor foci were dissociated with 0.05% Trypsin EDTA and the cells were plated at a density of 1.5×10^6 cells/100 mm Laminin coated dish in NeuroII-G418 medium. The cells were dissociated every other day for expansion, and prepared for Cryopreservation at passage 3 or 4. The cryopreservation medium contained 50% KSR, 10% Dimethyl Sulfoxide (DMSO) (Sigma) and 40% NeuroI-G418I medium. Neuronas precursors were crypreserved at a concentration of 4×10^6cells/ml and 1 ml/cryovial in a controlled rate freezer overnight then transferred to an ultra-low freezer or liquid nitrogen for long-term storage,
(§4) Neuronal Differentiation: Cryopreserved ES cell-derived neuronal precursors were thawed by the rapid thaw method in a 37-degree water-bath. The cells were transferred from the cryovial to a 100 mm Laminin coated tissue culture dish that already contained NeuroII-G418 that had been equilibrated in a 2% Oxygen incubator. The media was changed with fresh NeuroII-G418 the next day. The cells were dissociated every other day as described above for expansion to generate enough cells to plate for the screen. For the screen, the cells were plated into 384-well poly-d-lysine coated tissue culture dishes (BD Biosciences) by the automated SelecT at a cell density of 6K cells/well in differentiation medium NeuroIII that contained a 4:1 ratio of the NeuroBasalMedium/B27:D-MEM/F12/N2 supplemented with 1 μM cAMP (Sigma), 200 μM Ascorbic Acid (Sigma), 1 μg/ml Laminin (Invitrogen) and 10 ng/ml BDNF (R&D Systems). The plates were put in an incubator with 2% Oxygen and allowed to complete the differentiation process for 7 days. The cells could then be used over a 5-day period for the high throughput screen.
(§5) Procedure for AMPA ES Cell FLIPR Screen […]

AMPA receptors [2] = test: AMPA ES Cell FLIPR Screen, G7330A (single dose % effect); assay type: cell-based, murine; settings: Dose 32.0 uM; mean (range and n in cells below); ES cell-derived neurons, 32 uM AMPA challenge; negative control AMPA alone, positive control AMPA plus cyclothiazide
Method: as §1, §2, §3, §4, §5

[3] = Dose 32.0 uM, individual determinations
[4] = individual determinations, read-out: G7330B (U): EC50
[5] = mean of individual determinations (range and n in cells below), read-out: G7330B mean EC50
[6] = Dose 31.6 uM, individual determinations

SMILES | EC50 (AMPA receptors [1]; [4]) | EC50 (AMPA receptors [1]; [5]) | G7330B (U): % Effect (AMPA receptors [1]; [3]) | G7330A: % Effect (AMPA receptors [2]) | G7330B (U): % Effect (AMPA receptors [1]; [6])
CC(C)S(=O)(=O)N[C@@H]1CN(C)CC[C@H]1c1ccc(-c2ccccc2)cc1 (relative stereo) [Example 2, propane-2-sulfonic acid (trans-4-biphenyl-4-yl-1-methyl-piperidin-3-yl)-amide] | 4.43 µM and 5.97 µM and 3.78 µM and 8.04 µM | 5.32 µM | 127% and 141% and 134% and 142% and 151% and 173% and 180% | 112% | 
CCS(=O)(=O)N[C@@H]1CNCC[C@H]1c1ccc(-c2ccccc2)cc1 (relative stereo) [Example 9, Ethanesulfonic acid (trans-4-biphenyl-4-yl-piperidin-3-yl)-amide] | > 32 µM | > 32 µM | 73.4% and 60.8% and 66.9% | 59.1% | 
CC(C)S(=O)(=O)N[C@@H]1CN(C)CC[C@@H]1c1ccc(-c2ccccc2)cc1 (relative stereo) [Example 7, propane-2-sulfonic acid (cis-4-biphenyl-4-yl-1-methyl-piperidin-3-yl)-amide] |  |  |  | −0.867% | −0.0209% and −0.612% and −1.41% and −1.42%
CCCS(=O)(=O)N[C@@H]1CNCC[C@H]1c1ccc(-c2ccccc2)cc1 (relative stereo) [Example 10, Propane-1-sulfonic acid (trans-4-biphenyl-4-yl-piperidin-3-yl)-amide] | > 32 µM | > 32 µM | 23.4% and 19.5% and 18.5% and 5.64% and 6.55% and 7.27% | 11.2% | 
O=S(=O)(CC(F)(F)F)NC1CNCCC1c1ccc(-c2ccccc2)cc1 (stereo not drawn) [Example 13, 2,2,2-Trifluoro-ethanesulfonic acid(trans-4-biphenyl-4-yl-piperidin-3-yl)-amide] | > 32 µM | > 32 µM | 27.9% and 46.2% and 59.8% and 48.9% and 30.2% and 28.1% | 43.7% | 
CCS(=O)(=O)N[C@@H]1CNCC[C@@H]1c1ccc(-c2ccccc2)cc1 (relative stereo) [Example 11, Ethanesulfonic acid (cis-4-biphenyl-4-yl-piperidin-3-yl)-amide] |  |  | 1.55% and 3.14% and 2.25% and 2.45% | 2.34% | 
CCCS(=O)(=O)N[C@@H]1CNCC[C@@H]1c1ccc(-c2ccccc2)cc1 (relative stereo) [Example 12, Propane-1-sulfonic acid(cis-4-biphenyl-4-yl-piperidin-3-yl)-amide] |  |  | 0.428% and −0.204% and −0.02059% and 0.243% | 0.110% | 
CC(C)S(=O)(=O)NC1CCN(C)CC1c1ccc(-c2ccccc2)cc1 (stereo not drawn) [Example 25, Propane-2-sulfonic acid(trans-3-biphenyl-4-yl-1-methyl-piperidin-4-yl)-amide] | > 32 µM | > 32 µM | −0.323% and 0.295% and 2.72% |  | 
CC(=O)N1CC[C@@H](NS(=O)(=O)C(C)C)[C@H](c2ccc(NC(=O)c3ccccc3)cc2)C1 (relative stereo) [Example 39, N-{4-[trans-1-Acetyl-4-(propane-2-sulfonylamino)-piperidin-3-yl]-phenyl}-benzamide] | 20.2 µM | 20.2 µM |  |  | 145% and 142%

The next lines start with results.

EC50 (AMPA receptors [1]; [4]) | EC50 (AMPA receptors [1]; [5]) | SMILES | G7330B (U): % Effect (AMPA receptors [1]; [3]) | G7330A: % Effect (AMPA receptors [2]) | G7330B (U): % Effect (AMPA receptors [1]; [6])
16.8 µM and 11.1 µM and 12.5 µM | 13.2 µM | CC(C)S(=O)(=O)N[C@@H]1CNCC[C@H]1c1ccc(-c2ccccc2)cc1 (relative stereo) [Example 1, propane-2-sulfonic acid (trans-4-biphenyl-4-yl-piperidin-3-yl)-amide] | 86.8% and 115% and 132% and 92.5% and 85.0% | 87.1% | 
> 32 µM | > 32 µM | CS(=O)(=O)N[C@@H]1CNCC[C@H]1c1ccc(-c2ccccc2)cc1 (relative stereo) [Example 8, N-(trans-4-Biphenyl-4-yl-piperidin-3-yl)-methanesulfonamide] | 62.1% and 46.9% and 54.7% and 34.7% and 36.6% and 38.0% | 56.3% | 
> 32 µM | > 32 µM | O=S(=O)(NC1CNCCC1c1ccc(-c2ccccc2)cc1)C1CC1 (stereo not drawn) [Example 14, Cyclopropanesulfonic acid(trans-4-biphenyl-4-yl-piperidin-3-yl)-amide] | 4.61% and 2.97% and 3.26% and 0.0952% and 0.150% and 1.02% | 3.36% | 
8.97 µM | 8.97 µM | CC(C)S(=O)(=O)NC1COCCC1c1ccc(-c2ccc(C#N)cc2)cc1 (stereo not drawn) [Example 35, Propane-2-sulfonic acid[trans-4-(4′-cyano-biphenyl-4-yl)-tetrahydro-pyran-3-yl]-amide] |  |  | 146% and 155% and 152%
5.39 µM and > 31.6 µM and 6.36 µM | > 10.3 µM | CC(C)S(=O)(=O)NC1COCCC1c1ccc(-c2ccccc2)cc1 (stereo not drawn) [Example 30, Propane-2-sulfonic acid(trans-4-biphenyl-4-yl-tetrahydro-pyran-3-yl)-amide] | 119% and 113% and 126% |  | 
